Results as given in patent US11026943B2, “Aminoquinoline derivatives and uses thereof” (UNIVERSITY OF DELHI, priority 2012, dated 2021).
Values belong to the compound of their own block, whether it stands above or below them.

Columns and labels:
[1] = system: CQ-sensitive (D6 clone) strain of P. falciparum; experiment: In vitro antimalarial activity, CQ-sensitive strain; assay type: cell-based, Plasmodium falciparum; settings: for IC50: Plasmodium falciparum, CQ-sensitive D6 clone, read-out: P. falciparum (D6 Clone) IC50; for P. falciparum (D6 Clone) S.I.: selectivity index = IC50 cytotoxicity to Vero cells / IC50 antimalarial; for activity fold higher than artemisinin: CQ-sensitive strain
Text: (§1) Med. Chem. 2005, 13, 4458; Khan, I. A. Lipids 2004, 37, 169].

HepG2 cells = experiment: In vitro cytotoxicity to mammalian cells, HepG2; assay type: cell-based; settings: Homo sapiens
Text: as §1

VERO cells = experiment: In vitro cytotoxicity to mammalian cells, VERO; assay type: cell-based; settings: for IC50: Chlorocebus sabaeus, Vero, in vitro cytotoxicity to mammalian cells
Text: as §1

LLC-PK-1 cells = experiment: In vitro cytotoxicity to mammalian cells, LLC-PK-1; assay type: cell-based; settings: Sus scrofa, LLC-PK1
Text: as §1

[2] = system: CQ-resistant (W2 clone) strain of P. falciparum; experiment: In vitro antimalarial activity, CQ-resistant strain; assay type: cell-based, Plasmodium falciparum; settings: for IC50: Plasmodium falciparum, CQ-resistant W2 clone, read-out: P. falciparum (W2 Clone) IC50; for P. falciparum (W2 Clone) S.I.: selectivity index = IC50 cytotoxicity to Vero cells / IC50 antimalarial
Text: as §1

parasitemia = experiment: In-vivo antimalarial activity in mice; settings: mice; for parasitemia suppression / % Parasitemia suppression Day 5: day 5; for parasitemia suppression / survival rate / apparent toxicity: 30 mg/kg for 3 days post infection; for survival rate / Survival (animals that survived day 28/total animals in group): day 28; for Cure (number of mice without parasitemia till day 28 post-infection) / MST (mean survival time) / Remarks (toxicity) / % Parasitemia suppression Day 5 / % Parasitemia suppression Day 7 / Survival (animals that survived day 28/total animals in group) / Day of Death: PO; for Day of Death: per animal
[3] = 3.3 mg/kg × 3 days post-infection
[4] = 10 mg/kg × 3 days post-infection
[5] = 30 mg/kg × 3 days post-infection

Compound: Cc1cc(NCCNc2ccnc3cc(Cl)ccc23)nc(N2CCOCC2)n1 [12e, N-(7-Chloro-quinolin-4-yl)-N′-(6-methyl-2-morpholin-4-yl-pyrimidin-4-yl)-ethane-1,2-diamine]
IC50 [1]: 25 nM | P. falciparum (D6 Clone) S.I. [1]: (>2400) | IC50 (HepG2 cells): > 60 µM | IC50 (VERO cells): > 60 µM | melting point: 165 to 167 °C | IC50 (LLC-PK-1 cells): > 60 µM | IC50 [2]: 120 nM | P. falciparum (W2 Clone) S.I. [2]: (>500)

Compound: Cc1cc(NCCCNc2ccnc3cc(Cl)ccc23)nc(N2CCOCC2)n1 [12f, N-(7-Chloro-quinolin-4-yl)-N′-(6-methyl-2-morpholin-4-yl-pyrimidin-4-yl)-propane-1,3-diamine]
IC50 [1]: 22 nM | P. falciparum (D6 Clone) S.I. [1]: (>2727) | IC50 (HepG2 cells): 26.1 µM | IC50 (VERO cells): > 60 µM | melting point: 165 to 167 °C | IC50 (LLC-PK-1 cells): 35.1 µM | IC50 [2]: 58 nM | P. falciparum (W2 Clone) S.I. [2]: (>1034)

Compound: Cc1cc(NCCCCCCNc2ccnc3cc(Cl)ccc23)nc(N2CCOCC2)n1 [12h, N-(7-Chloro-quinolin-4-yl)-N′-(6-methyl-2-morpholin-4-yl-pyrimidin-4-yl)-hexane-1,6-diamine]
IC50 [1]: 41 nM | selectivity index of antimalarial activity ([1]; ratio of IC50 for cytotoxicity to Vero cells and IC50 for antimalarial activity): considerably high | P. falciparum (D6 Clone) S.I. [1]: 417.0 | IC50 (HepG2 cells): < 6.7 µM | IC50 (VERO cells): 17.1 µM | toxicity to cell lines (VERO cells; all the three cell lines (VERO, LLC-PK-1, and HepG2)): showed toxicity | melting point: 107 to 109 °C | IC50 (LLC-PK-1 cells): 9.8 µM | IC50 [2]: 120 nM | P. falciparum (W2 Clone) S.I. [2]: 142.5

Compound: Cc1cc(Cl)nc(NCCCCCCNc2ccnc3cc(Cl)ccc23)n1 [11d]
IC50 [1]: 165 nM | P. falciparum (D6 Clone) S.I. [1]: 336.9 | IC50 (HepG2 cells): 8.1 µM | IC50 (VERO cells): 55.6 µM | IC50 (LLC-PK-1 cells): 23.4 µM | IC50 [2]: 568 nM | P. falciparum (W2 Clone) S.I. [2]: 97.8

Compound: Cc1cc(Cl)nc(NCCCNc2ccnc3cc(Cl)ccc23)n1 [11b]
IC50 [1]: 270 nM | P. falciparum (D6 Clone) S.I. [1]: (>222) | IC50 (HepG2 cells): > 60 µM | IC50 (VERO cells): > 60 µM | IC50 (LLC-PK-1 cells): > 60 µM | IC50 [2]: 1240 nM | P. falciparum (W2 Clone) S.I. [2]: (>48)

Compound: Cc1cc(NCCNc2ccnc3cc(Cl)ccc23)nc(N2CCN(C)CC2)n1 [12i, N-(7-Chloro-quinolin-4-yl)-N′-[6-methyl-2-(4-methyl-piperazin-1-yl)-pyrimidin-4-yl]-ethane-1,2-diamine]
activity fold higher than artemisinin [1]: 2 fold | IC50 [1]: 6 nM | P. falciparum (D6 Clone) S.I. [1]: (>10000) | IC50 (HepG2 cells): > 60 µM | IC50 (VERO cells): > 60 µM | IC50 (LLC-PK-1 cells): > 60 µM | IC50 [2]: 46 nM | P. falciparum (W2 Clone) S.I. [2]: (>1304) | parasitemia suppression (parasitemia): 100% | survival rate (parasitemia): 5/5 | apparent toxicity (parasitemia): No apparent toxicity | Cure (number of mice without parasitemia till day 28 post-infection) (parasitemia; [3]): 0/5 | MST (mean survival time) (parasitemia; [3]): 19.2 days | Remarks (toxicity) (parasitemia; [3]): No apparent | % Parasitemia suppression Day 5 (parasitemia; [3]): 23.52% | % Parasitemia suppression Day 7 (parasitemia; [3]): 35.21% | Survival (animals that survived day 28/total animals in group) (parasitemia; [3]): 1/5 | Day of Death (parasitemia; [3]): 21/28/21/13/13 | Cure (number of mice without parasitemia till day 28 post-infection) (parasitemia; [4]): 0/5 | MST (mean survival time) (parasitemia; [4]): 21.4 days | Remarks (toxicity) (parasitemia; [4]): No apparent | % Parasitemia suppression Day 5 (parasitemia; [4]): 97.03% | % Parasitemia suppression Day 7 (parasitemia; [4]): 2.03% | Survival (animals that survived day 28/total animals in group) (parasitemia; [4]): 0/5 | Day of Death (parasitemia; [4]): 21/22/22/21/21 | Cure (number of mice without parasitemia till day 28 post-infection) (parasitemia; [5]): 4/5 | MST (mean survival time) (parasitemia; [5]): 28 days | Remarks (toxicity) (parasitemia; [5]): No apparent | % Parasitemia suppression Day 5 (parasitemia; [5]): 100.00% | % Parasitemia suppression Day 7 (parasitemia; [5]): 100.00% | Survival (animals that survived day 28/total animals in group) (parasitemia; [5]): 5/5 | Day of Death (parasitemia; [5]): 28/28/28/28/28

Compound: CCN1CCN(c2nc(C)cc(NCCCNc3ccnc4cc(Cl)ccc34)n2)CC1 [12m, N-(7-Chloro-quinolin-4-yl)-N′-[2-(4-ethyl-piperazin-1-yl)-6-methyl-pyrimidin-4-yl]-propane-1,3-diamine]
activity fold higher than artemisinin [1]: 2 fold | IC50 [1]: 6 nM | P. falciparum (D6 Clone) S.I. [1]: (>10000) | IC50 (HepG2 cells): > 60 µM | IC50 (VERO cells): > 60 µM | IC50 (LLC-PK-1 cells): > 60 µM | IC50 [2]: 61 nM | P. falciparum (W2 Clone) S.I. [2]: (>983) | parasitemia suppression (parasitemia): 100% | survival rate (parasitemia): 4/5 | apparent toxicity (parasitemia): No apparent toxicity | Cure (number of mice without parasitemia till day 28 post-infection) (parasitemia; [3]): 0/5 | MST (mean survival time) (parasitemia; [3]): 20.2 days | Remarks (toxicity) (parasitemia; [3]): No apparent | % Parasitemia suppression Day 5 (parasitemia; [3]): 20.12% | % Parasitemia suppression Day 7 (parasitemia; [3]): 19.09% | Survival (animals that survived day 28/total animals in group) (parasitemia; [3]): 0/5 | Day of Death (parasitemia; [3]): 17/21/21/21/21 | Cure (number of mice without parasitemia till day 28 post-infection) (parasitemia; [4]): 0/5 | MST (mean survival time) (parasitemia; [4]): 15.2 days | Remarks (toxicity) (parasitemia; [4]): No apparent | % Parasitemia suppression Day 5 (parasitemia; [4]): 73.89% | % Parasitemia suppression Day 7 (parasitemia; [4]): 27.14% | Survival (animals that survived day 28/total animals in group) (parasitemia; [4]): 0/5 | Day of Death (parasitemia; [4]): 7/21/20/7/21 | Cure (number of mice without parasitemia till day 28 post-infection) (parasitemia; [5]): 1/5 | MST (mean survival time) (parasitemia; [5]): 27.2 days | Remarks (toxicity) (parasitemia; [5]): No apparent | % Parasitemia suppression Day 5 (parasitemia; [5]): 100.00% | % Parasitemia suppression Day 7 (parasitemia; [5]): 100.00% | Survival (animals that survived day 28/total animals in group) (parasitemia; [5]): 4/5 | Day of Death (parasitemia; [5]): 28/28/28/28/24

Continued, in another order:

melting point: 214 to 216 °C
Compound: Cc1cc(NCCCCNc2ccnc3cc(Cl)ccc23)nc(N2CCOCC2)n1 [12g, N-(7-Chloro-quinolin-4-yl)-N′-(6-methyl-2-morpholin-4-yl-pyrimidin-4-yl)-butane-1,4-diamine]

IC50 [1]: 22 nM | melting point: 183 to 185 °C | IC50 [2]: 21 nM
Compound: Cc1cc(NCCCCNc2ccnc3cc(Cl)ccc23)nc(N2CCN(C)CC2)n1 [12k, N-(7-Chloro-quinolin-4-yl)-N′-[6-methyl-2-(4-methyl-piperazin-1-yl)-pyrimidin-4-yl]-butane-1,4-diamine]
P. falciparum (D6 Clone) S.I. [1]: (>2727) | IC50 (HepG2 cells): 27.2 µM | IC50 (VERO cells): > 60 µM | IC50 (LLC-PK-1 cells): 34 µM | P. falciparum (W2 Clone) S.I. [2]: (>2857)

melting point: 177 to 179 °C
Compound: Cc1cc(NCCNc2ccnc3cc(Cl)ccc23)nc(N2CCCCC2)n1 [12a, N-(7-chloro-quinolin-4-yl)-N′-(6-methyl-2-piperidin-1-yl-pyrimidin-4-yl)-ethane-1,2-diamine]

IC50 [1]: 21 nM | melting point: 187 to 189 °C | IC50 [2]: 82 nM
Compound: Cc1cc(NCCCCNc2ccnc3cc(Cl)ccc23)nc(N2CCCCC2)n1 [12c, N-(7-Chloro-quinolin-4-yl)-N′-(6-methyl-2-piperidin-1-yl-pyrimidin-4-yl)-butane-1,4-diamine]
P. falciparum (D6 Clone) S.I. [1]: (>2857) | IC50 (HepG2 cells): > 60 µM | IC50 (VERO cells): > 60 µM | IC50 (LLC-PK-1 cells): > 60 µM | P. falciparum (W2 Clone) S.I. [2]: (>730)

IC50 [1]: 26 nM | IC50 [2]: 211 nM
Compound: Cc1cc(NCCCNc2ccnc3cc(Cl)ccc23)nc(N2CCCCC2)n1 [12b, N-(7-Chloro-quinolin-4-yl)-N′-(6-methyl-2-piperidin-1-yl-pyrimidin-4-yl)-propane-1,3-diamine]
P. falciparum (D6 Clone) S.I. [1]: (>2300) | IC50 (HepG2 cells): > 60 µM | IC50 (VERO cells): > 60 µM | IC50 (LLC-PK-1 cells): > 60 µM | P. falciparum (W2 Clone) S.I. [2]: (>284)
